The record followed here is article PMC11150261, “Evaluation of antibacterial, cytotoxicity, and apoptosis activity of novel chromene-sulfonamide hybrids synthesized under solvent-free conditions and 3D-QSAR modeling studies” (Scientific Reports, 2024).

Holding throughout (format): cell-based
In data set [1] the test system is S. aureus ATCC 25923. The data set is described as follows: Broth microdilution MIC. Particulars: for MIC: Staphylococcus aureus, ATCC25923. As to the method:
(§1) A broth microdilution method was utilized to explore the minimum inhibitory concentrations (MIC) of all the newly synthesized compounds against E. coli ATCC 25922 and S. aureus ATCC 25923. Test compounds were prepared using dimethyl sulfoxide (DMSO) as a stock solution, followed by serial dilutions in Mueller Hinton broth containing up to one percent DMSO. At the end, a diluted bacterial suspension from a 0.5 McFarland tube was added to all the wells (the final volume of each well was 1 × 10^5 CFU/ml). In the growth control, a culture medium with bacteria was used as a positive control, and a culture medium without bacteria was used as a negative control (sterility control). The MIC was the lowest concentration of the synthesized compounds that produced no growth on the plate. Sulfisoxazole, functioning as a sulfonamide antibiotic, and gentamicin were employed in a comparative analysis of antibacterial activity, cytotoxicity, and apoptosis assessment.

For data set [2], the system named is E. coli ATCC 25922. The data set is described as follows: Broth microdilution MIC. Particulars: for MIC: Escherichia coli, ATCC25922. As to the method:
as §1
Background: Broth dilution looks for growth in wells or tubes with falling amounts of substance.

Data set [3] concerns fibroblast L929 cells. The data set is described as follows: Cytotoxicity assay by MTT. Particulars: Mus musculus, fibroblast L929 cell line, 24 h. As to the method:
MTT was applied to evaluate the cytotoxicity of the newly synthesized compounds against fibroblast L929 cells (Pasteur Institute, Tehran, Iran). Briefly, 100 μl of cell suspension (1 × 10^4 cells/well) in RPMI 1640 medium, as seeded in 96-well microplates and incubated for 24 h (37 °C, 5% CO2 air humidified). After removing the old media, 100 µl of each of the newly synthesized compounds was added to each well at different concentrations. The plates were incubated for another 24 h in the same condition. To determine the positive and negative controls, doxorubicin and DMSO were used. Cell survival was determined by adding 10 µL of an MTT solution (5 mg/ml in PBS) to each well and incubating at 37 °C for 3 h. The previous MTT-containing media was then removed, and 100 µL DMSO was pipetted into each well to dissolve the produced formazan crystals. Using an ELISA plate reader (Startfix-2100, Awareness, USA), absorbance was measured at 570 nm. By plotting the percentage of cytotoxicity versus concentration of the produced compounds, the concentrations that inhibit half of the cell population (IC50) were determined. A mean and standard deviation (SD) are used to represent the results. The percentage cell viability was calculated using the formula: Viability=Absorbance \, of \, treated \, cells-background \, absorbance(b)/Absorbance \, of \, untreated \, cells(c)-background \, absorbance(b)×100 where (b) = blank, and (c) = control.

Data set [4] can be described thus: Apoptosis Annexin V binding assay (flow cytometry). As to conditions: mouse, L929 fibroblast cells; L929, IC50 concentration, Annexin V-FITC/PI. The procedure:
(§2) To detect apoptosis, the Annexin V binding assay was used. The assay was performed according to the manufacturer's instructions using a FITC Annexin V Apoptosis Detection Kit with PI from BioLegend® (San Diego, California). To conduct this test, the fibroblast L929 cell line (Pasteur Institute, Tehran, Iran) was treated with various concentrations of the newly synthesized compounds and then incubated for 24 h at 37 °C with 5% CO2. Subsequently, each well's supernatant was removed and the cells were washed with PBS. Each well was then filled with 500 μl of Annexin-binding buffer (10 mM HEPES, 140 mM NaCl, and 2.5 mM CaCl2, pH 7.4) and 10 μl of Annexin V and PI. For 15 min, the plates were incubated at room temperature and kept away from light. After incubation, using a BD FACSCalibur flow cytometer (Biosciences, San Jose, CA, USA), the cells were examined after incubation. FlowJo software (version 10.5.3, TreeStar Incorporated, Ashland, OR) was used to analyze flow cytometry data.

Data set [5] concerns fibroblast L929 cell line. The data set is described as follows: Apoptosis Annexin V binding assay (flow cytometry). Particulars: L929 cells, 24 h, IC50 concentration of each compound. The procedure:
as §2
In general terms: In flow cytometry, cells or beads pass a laser one at a time.

Values after ≈ are worked out from the molar mass of the structure shown. Where two headings read alike, the source gives them in different places.

Turning to `CC(=O)Nc1ccc(S(=O)(=O)Nc2ccc3c(c2)OC(N)=C(C#N)C3c2cccc(Oc3ccccc3)c2)cc1` (centres unmarked) [6b, N-[4-[2-amino-3-cyano-4-(3-phenoxy-phenyl)-4H-chromene-7-ylsulfamoyl]-phenyl}-acetamide], in data set [1], the “antibacterial effect on S. aureus (MIC results)” value is “robust antibacterial effect”. The “MIC effect on S. aureus” value in data set [1] (SAR effect diagram, Table 6) is recorded as “Neutral”. The MIC in data set [1] (Table 7, read-out: MIC for S. aureus) was 256 µg/mL (≈ 463 µM); in data set [1] (microdilution method, read-out: Minimum inhibitory concentrations (MIC) S. aureus ATCC 25923) it was 256 µg/mL (≈ 463 µM); in data set [2] (Table 6, antibacterial activity against E. coli, read-out: MIC for E. coli ATCC 25922), 64 µg/mL (≈ 116 µM); in data set [2] (microdilution method, read-out: Minimum inhibitory concentrations (MIC) E. coli ATCC 25922), 64 µg/mL (≈ 116 µM). Moreover, the “antibacterial effect on E. coli (MIC results)” value in data set [2] is “robust antibacterial effect”. Besides, the “MIC effect on E. coli” value in data set [2] (SAR effect diagram) is given as “Positive”. In data set [3], this molecule displayed an IC50 of 114 µg/mL (≈ 206 µM). The viability at 24 h in data set [4] was found to be 46%. This molecule also had an induced cell death in data set [5] of 53.85%.

The IC50 is the midpoint of a concentration-inhibition curve. A lower IC50 goes with inhibition by little substance. As usually defined, the viability is the share of living cells, or the viability signal relative to a control. A low value points to a greater loss of cells.
